Measurements from patent US20110224210A1, “NOVEL BIS-AMIDES AS ANTI-MALARIAL AGENTS” (priority 2008, published 2011).

System: P. falciparum K1 (strain resistant to chloroquine and pyrimethamine), erythrocytic stages
Assay: Plasmodium falciparum in vitro assay, [3H] hypoxanthine incorporation
Type: cell-based
Conditions: Plasmodium falciparum, K1, P. falciparum strain K1; [3H] hypoxanthine incorporation; read-out: IC50 (nM) on K1
Procedure, shortened: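 Chloroquine/pyrimethamine-resistant K1 erythrocytic cultures (2.5% haematocrit, 0.3% parasitaemia, hypoxanthine-free RPMI with Albumax) exposed to seven doubling dilutions at 37 °C under low O2.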

SMILES | IC50 [nM]
O=C([C@H](Cc1ccccc1)N(Cc1ccc(-c2ccccn2)cc1)C(=O)C=Cc1ccc(C(F)(F)F)cc1)N1CCC(CN2CCCC2)CC1 [Example 52, (S)-N-[1-Benzyl-2-oxo-2-(4-pyrrolidin-1-ylmethyl-piperidin-1-yl)-ethyl]-N-(4-pyridin-2-yl-benzyl)-3-(4-trifluoromethyl-phenyl)-acrylamide] | 92
CN(CCOCc1ccc(OC(F)F)cc1)C(=O)[C@H](Cc1ccccc1)N(Cc1ccc(N2CCOCC2)cc1)C(=O)C=Cc1ccc(C(F)(F)F)cc1 [Example 201, (S)-N-(1-{[2-(4-Difluoromethoxy-benzyloxy)-ethyl]-methyl-carbamoyl}-2-phenyl-ethyl)-N-(4-morpholin-4-yl-benzyl)-3-(4-trifluoromethyl-phenyl)-acrylamide] | 32
Cc1noc(C)c1C=CC(=O)N(Cc1ccc(N2CCOCC2)cc1)[C@@H](Cc1ccccc1)C(=O)N1CCC(N(C)C)CC1 [Example 3, (S)-N-[1-Benzyl-2-(4-dimethylamino-piperidin-1-yl)-2-oxo-ethyl]-3-(3,5-dimethyl-isoxazol-4-yl)-N-(4-morpholin-4-yl-benzyl)-acrylamide] | 436
COCCN(C)C(=O)[C@H](Cc1ccccc1)N(Cc1ccc(N2CCN(C(C)=O)CC2)cc1)C(=O)C=Cc1cnc(C)n1C [Example 106, (S)-N-[4-(4-Acetyl-piperazin-1-yl)-benzyl]-3-(2,3-dimethyl-3H-imidazol-4-yl)-N-{1-[(2-methoxy-ethyl)-methyl-carbamoyl]-2-phenyl-ethyl}-acrylamide] | 470
Cc1nn(C)c(C)c1C=CC(=O)N(Cc1ccc(N2CCOCC2)cc1)[C@@H](Cc1ccccc1)C(=O)N1CCC(N(C)C)CC1 [Example 1, (S)-N-[1-Benzyl-2-(4-dimethylamino-piperidin-1-yl)-2-oxo-ethyl]-N-(4-morpholin-4-yl-benzyl)-3-(1,3,5-trimethyl-1H-pyrazol-4-yl)-acrylamide] | 211
CC(=O)N1CCN(c2ccc(CN(C(=O)C=Cc3ccc(C(F)(F)F)nc3)[C@@H](Cc3ccccc3)C(=O)N(C)CCOCc3ccccn3)cc2)CC1 [Example 215, (S)-N-[4-(4-Acetyl-piperazin-1-yl)-benzyl]-N-(1-{methyl-[2-(pyridin-2-ylmethoxy)-ethyl]-carbamoyl}-2-phenyl-ethyl)-3-(6-trifluoromethyl-pyridin-3-yl)-acrylamide] | 86
CN(C)C1CCN(C(=O)[C@H](Cc2ccccc2)N(Cc2ccc(-c3cncnc3)cc2)C(=O)C=Cc2ccc(C(F)(F)F)cn2)CC1 [Example 42, (S)-N-[1-Benzyl-2-(4-dimethylamino-piperidin-1-yl)-2-oxo-ethyl]-N-(4-pyrimidin-5-yl-benzyl)-3-(5-trifluoromethyl-pyridin-2-yl)-acrylamide] | 104
COc1ccc(C=CC(=O)N(Cc2ccc(-c3ccccn3)cc2)[C@@H](Cc2ccccc2)C(=O)N2CCC(N(C)C)CC2)cn1 [Example 16, (S)-N-[1-Benzyl-2-(4-dimethylamino-piperidin-1-yl)-2-oxo-ethyl]-3-(6-methoxy-pyridin-3-yl)-N-(4-pyridin-2-yl-benzyl)-acrylamide] | 115
COCCN(C)C(=O)[C@H](Cc1ccccc1)N(Cc1ccc(N2CCOCC2)cc1)C(=O)C=Cc1sc(C)nc1C [Example 63, (S)-3-(2,4-Dimethyl-thiazol-5-yl)-N-{1-[(2-methoxy-ethyl)-methyl-carbamoyl]-2-phenyl-ethyl}-N-(4-morpholin-4-yl-benzyl)-acrylamide] | 87
CN(C)C1CCN(C(=O)[C@H](Cc2ccccc2)N(Cc2ccc(-c3cncnc3)cc2)C(=O)C=Cc2ccc(Cl)cn2)CC1 [Example 39, (S)-N-[1-Benzyl-2-(4-dimethylamino-piperidin-1-yl)-2-oxo-ethyl]-3-(5-chloro-pyridin-2-yl)-N-(4-pyrimidin-5-yl-benzyl)-acrylamide] | 170
COCCN(C)C(=O)[C@H](Cc1ccccc1)N(Cc1ccc(-c2ccncc2)cc1)C(=O)C=Cc1ccn(C)n1 [Example 91, (S)-N-{1-[(2-Methoxy-ethyl)-methyl-carbamoyl]-2-phenyl-ethyl}-3-(1-methyl-1H-pyrazol-3-yl)-N-(4-pyridin-4-yl-benzyl)-acrylamide] | 26
CC(=O)N1CCN(c2ccc(CN(C(=O)C=Cc3ccc(C(F)(F)F)cc3)[C@@H](Cc3ccccc3)C(=O)N(C)CCOc3ncccn3)cc2)CC1 [Example 180, (S)-N-[4-(4-Acetyl-piperazin-1-yl)-benzyl]-N-(1-{methyl-[2-(pyrimidin-2-yloxy)-ethyl]-carbamoyl}-2-phenyl-ethyl)-3-(4-trifluoromethyl-phenyl)-acrylamide] | 38
CN(CCOCc1ccccc1)C(=O)[C@H](Cc1ccccc1)N(Cc1ccc(N2CCOCC2)cc1)C(=O)C=Cc1ccc(C(F)(F)F)cc1 [Example 182, (S)-N-{1-[(2-Benzyloxy-ethyl)-methyl-carbamoyl]-2-phenyl-ethyl}-N-(4-morpholin-4-yl-benzyl)-3-(4-trifluoromethyl-phenyl)-acrylamide] | 18
CC(=O)N1CCN(c2ccc(CN(C(=O)C=Cc3ccc(C(F)(F)F)cc3)[C@@H](Cc3ccccc3)C(=O)N(C)CCN(C)Cc3ccncc3)cc2)CC1 [Example 253, (S)-N-[4-(4-Acetyl-piperazin-1-yl)-benzyl]-N-(1-{methyl-[2-(methyl-pyridin-4-ylmethyl-amino)-ethyl]-carbamoyl}-2-phenyl-ethyl)-3-(4-trifluoromethyl-phenyl)-acrylamide] | 19
CC(=O)N1CCN(c2ccc(CN(C(=O)C=Cc3ccc(C(F)(F)F)cc3)[C@@H](Cc3ccccc3)C(=O)N(C)CCOCc3ccc(OC(F)F)cc3)cc2)CC1 [Example 188, (S)-N-[4-(4-Acetyl-piperazin-1-yl)-benzyl]-N-(1-{[2-(4-difluoromethoxy-benzyloxy)-ethyl]-methyl-carbamoyl}-2-phenyl-ethyl)-3-(4-trifluoromethyl-phenyl)-acrylamide, formic acid] | 53
CN(CCN(C)C(=O)[C@H](Cc1ccccc1)N(Cc1ccc(-c2ccccn2)cc1)C(=O)C=Cc1ccc(C(F)(F)F)cc1)Cc1cccs1 [Example 225, (S)-N-(1-{Methyl-[2-(methyl-thiophen-2-ylmethyl-amino)-ethyl]-carbamoyl}-2-phenyl-ethyl)-N-(4-pyridin-2-yl-benzyl)-3-(4-trifluoromethyl-phenyl)-acrylamide] | 20
O=C([C@H](Cc1ccccc1)N(Cc1ccccn1)C(=O)C=Cc1ccc(C(F)(F)F)cc1)N1CCC(Cc2ccccc2)CC1 [Example 44, (S)-N-[1-Benzyl-2-(4-benzyl-piperidin-1-yl)-2-oxo-ethyl]-N-pyridin-2-ylmethyl-3-(4-trifluoromethyl-phenyl)-acrylamide] | 14
CN(CCN(C)C(=O)[C@H](Cc1ccccc1)N(Cc1ccc(N2CCOCC2)cc1)C(=O)C=Cc1ccc(C(F)(F)F)cc1)Cc1cnc[nH]1 [Example 269, (S)-N-[1-({2-[(3H-Imidazol-4-ylmethyl)-methyl-amino]-ethyl}-methyl-carbamoyl)-2-phenyl-ethyl]-N-(4-morpholin-4-yl-benzyl)-3-(4-trifluoromethyl-phenyl)-acrylamide] | 63
COCCN(C)C(=O)[C@H](Cc1ccccc1)N(Cc1ccc(N2CCOCC2)cc1)C(=O)C=Cc1cnc(C)n1C [Example 61, (S)-3-(2,3-Dimethyl-3H-imidazol-4-yl)-N-{1-[(2-methoxy-ethyl)-methyl-carbamoyl]-2-phenyl-ethyl}-N-(4-morpholin-4-yl-benzyl)-acrylamide] | 464
CC(=O)N1CCN(c2ccc(CN(C(=O)C=Cc3ccc(C(F)(F)F)cc3)[C@@H](Cc3ccccc3)C(=O)N(C)CCOCC#N)cc2)CC1 [Example 211, (S)-N-[4-(4-Acetyl-piperazin-1-yl)-benzyl]-N-{1-[(2-cyanomethoxy-ethyl)-methyl-carbamoyl]-2-phenyl-ethyl}-3-(4-trifluoromethyl-phenyl)-acrylamide] | 18
COc1ccc(CN(C)C(=O)[C@H](Cc2ccccc2)N(Cc2ccc(N3CCOCC3)cc2)C(=O)C=Cc2ccc(C(F)(F)F)nc2)cc1 [Example 177, (S)-N-{1-[(4-Methoxy-benzyl)-methyl-carbamoyl]-2-phenyl-ethyl}-N-(4-morpholin-4-yl-benzyl)-3-(6-trifluoromethyl-pyridin-3-yl)-acrylamide] | 84
CN(C)CCN(C)C(=O)[C@H](Cc1ccccc1)N(Cc1ccc(-c2ccccn2)cc1)C(=O)C=Cc1ccc(C(F)(F)F)cc1 [Example 171, (S)-N-{1-[(2-Dimethylamino-ethyl)-methyl-carbamoyl]-2-phenyl-ethyl}-N-(4-pyridin-2-yl-benzyl)-3-(4-trifluoromethyl-phenyl)-acrylamide] | 80
Cc1ccc(C=CC(=O)N(Cc2ccc(N3CCOCC3)nc2)[C@@H](Cc2ccccc2)C(=O)N2CCC(Cc3ccccc3)CC2)cc1 [Example 146, (S)-N-[1-Benzyl-2-(4-benzyl-piperidin-1-yl)-2-oxo-ethyl]-N-(6-morpholin-4-yl-pyridin-3-ylmethyl)-3-p-tolyl-acrylamide] | 9
CN(CCN(C)C(=O)[C@H](Cc1ccccc1)N(Cc1ccc(N2CCOCC2)cc1)C(=O)C=Cc1ccc(C(F)(F)F)cc1)Cc1cccnc1 [Example 259, (S)-N-(1-{Methyl-[2-(methyl-pyridin-3-ylmethyl-amino)-ethyl]-carbamoyl}-2-phenyl-ethyl)-N-(4-morpholin-4-yl-benzyl)-3-(4-trifluoromethyl-phenyl)-acrylamide] | 32
Cc1nc(C=CC(=O)N(Cc2ccc(-c3ccncc3)cc2)[C@@H](Cc2ccccc2)C(=O)N2CCC(N(C)C)CC2)cs1 [Example 23, (S)-N-[1-Benzyl-2-(4-dimethylamino-piperidin-1-yl)-2-oxo-ethyl]-3-(2-methyl-thiazol-4-yl)-N-(4-pyridin-4-yl-benzyl)-acrylamide] | 141
CN(C(=O)[C@H](Cc1ccccc1)N(Cc1ccc(-c2ccccn2)cc1)C(=O)C=Cc1ccc(C(F)(F)F)cc1)[C@@H]1CCN(Cc2ccccc2)C1 [Example 173, N-{1-[((R)-1-Benzyl-pyrrolidin-3-yl)-methyl-carbamoyl]-(S)-2-phenyl-ethyl}-N-(4-pyridin-2-yl-benzyl)-3-(4-trifluoromethyl-phenyl)-acrylamide] | 52
